# Test results: US20240424115A1, “LONG-ACTING INTERLEUKIN-15 RECEPTOR AGONISTS AND RELATED IMMUNOTHERAPEUTIC COMPOSITIONS AND METHODS” (Nektar Therapeutics, priority 2017, published 2024)
# Assays:
# [1] = Single dose PK study in mice (plasma concentration)
# Method: C57BL/6 mice (n=3/group) were administered a single intravenous dose of IL-15 (control) at 0.3 mg/kg) or of Conjugate 2 at a dose of 0.3 mg/kg. Following administration, blood samples were collected at various time points post administration (24 hours, 48 hours, 78 hours, 96 hours). […] Finally, at each time point, plasma concentration of drug was determined.
# For PK analysis, Conjugate 1 was administered as a single intravenous dose at 0.3 mg/kg in balb/c mice (n=3). Following administration, mice were humanely sacrificed and plasma was collected 24, 48, 72, 96, 120 and 144 hours post treatment. From a separate study, mice were administered a single intravenous dose of IL-15 (0.5 mg/kg). Samples from these mice were collected at the indicated time points within 6 hours of treatment.
# Balb/c mice (n=3/group) were administered a single intravenous dose of IL-15 (500 ug/kg) or of Conjugate 1 at 10, 30, 100, 300 and 1000 μg/kg. Blood samples were collected at the indicated time points post administration (conjugate 1:24, 48, 72, 96, 120, 144, 240 hours; IL-15 control: 0.03, 0.08, 0.25, 0.5, 1, 2, 4, 6, 8, hours) and plasma concentration of drug was determined.
# human PBMCs = test: HuPBMC-pStat5 assay (flow cytometry, lymphocyte subpopulations); type: cell-based
# Method: The potency of IL-15 or long acting IL-15 R agonists on various human lymphocyte subpopulations was determined by phospho-STAT5 (Y694) dose response assay. Frozen human PBMCs from multiple donors were supplied by AllCells. 1×10^6 cells/100ul were cultured in complete RPMI media for 2 hours and then incubated with the indicated concentrations (10,000ng/ml-0.001ng/ml serial dilutions) of IL-15 or conjugates for 20minutes at 37c. The cells were then fixed (using BD Cytofix) and permeabilized (using 100% pre-chilled methanol) and stained with antibodies for CD3, CD4, CD8, CD4-Tregs (CD4+CD25+Foxp3+), CD56 and phosphorylated STAT5 (Y694) before analysis by flow cytometry. Concentration-response relationships were used to calculate the EC50 values.
# Assessment of in-vitro activity of exemplary long-acting IL-15 receptor agonists (e.g., Conjugates 1, 3 and 5) was carried out by investigating signaling in NK cell subsets of human PBMCs as shown in FIGS. 10A (CD56bright cells) and 10B (CD56dim cells). STAT5 phosphorylation was evaluated as previously described for assessing IL-15 signaling activity of the long acting IL-15 receptor agonists.
# A second study was conducted to investigate/compare the pStat5 response of human PBMCs obtained from two donors (CD3, CD4, CD8, CD56 (bright and dim) and CD4-Tregs (CD25+Foxp3+)) to IL-15, Conjugate 1 and Conjugate 5. An […] dose response was examined using a 10-fold dilution with a dose range of 0.001-10000 ng/ml and a 20 min stimulation. Each of the test articles was diluted in IL-15 buffer+0.1% BSA.
# Assessment of in vitro activity of Conjugate 1 was carried out by investigating NK and CD8 JAK/STAT signaling after treatment of human PBMCs with IL-15 or Conjugate 1 at a dose range of 0.001-10000 ng/ml. STAT5 phosphorylation was assessed as previously described.
# [2] = PK (MRT) of long-acting IL-15 receptor agonists (Table 2B); type: in vivo; details: species not stated
# CT-26 cells = test: CT-26 lung metastasis model; details: for lung nodule inhibition: Example 19, one week apart
# Method: At day 0, 6-8 week-old female Balb/c mice were inoculated with 1×10^5 mouse CT-26 cells by tail vein injection. On day 1, post 24 h of CT-26 cells being administered, mice were divided into ten groups. […] Each group was assigned one intervention as follows: vehicle, phosphate buffered saline (Group A); native IL-15 alone (Group B); Conjugate 2 at a dose of 0.03 mg/kg (Group C); Conjugate 2 at a dose of 0.1 mg/kg (Group D); Conjugate 2 at a dose of 0.3 mg/kg (Group E); Conjugate 2 at a dose of 1.0 mg/kg (Group F); Conjugate 2 at a dose of 3.0 mg/kg (Group G); for Conjugate 1: vehicle, phosphate buffered saline (Group H); Conjugate 1 at a dose of 0.03 mg/kg (Group I) and Conjugate 1 at a dose of 0.3 mg/kg (Group J). Animals were dosed at days 1, 5, and 10.
# Post 13 days from the date of CT-26 tumor cells administration, mice were anesthetized, and blood and spleen cells were collected for further analysis of immunophenotype markers, while lungs were fixed for 24-48 h in Bouins solution containing picric acid and formaldehyde.
# The number of lung tumor nodules were counted under a dissection per each lung and mean of lung nodules for each group was determined. The statistical significance was also obtained between the vehicle group vs intervention groups using unpaired students t test.
# Balb/c mice received tail vein injection of 1×10^5 CT-26 colorectal carcinoma cells. The following day, mice (n=9/group) were treated weekly, twice, with Conjugate 1 (0.03 or 0.3 mg/kg) or vehicle control. Five days after the second injection, mice were humanely sacrificed and lung nodules were counted.
# CT-26 mice (n=7-11/group) were injected with anti-asialo GM1 to deplete NK cells or two different controls (lgG or PBS), then injected with 1×10^5 CT-26 tumor cells. Mice were then treated with Conjugate 2 at 0.3 mg/kg dosed on days 1, 5 and 10 post tumor cell injection or vehicle control. Mice were sacrificed and lung nodules were counted three days after the last day of treatment.
# CD4, CD8, and NK cells = test: In vivo IL-15 signaling (STAT5 phosphorylation in lymphocytes) in non-human primates; design: species or system cynomolgus monkeys; details: NHP
# Method: In the study, cynomolgus monkeys (cyno), one female and one male, were each intravenously administered a single dose of Conjugate 2 (0.5 mg/kg). A series of blood samples were taken from each animal both prior to treatment (day-6 and-1) and at multiple intervals following treatment for assessment by flow cytometry of STAT5 phosphorylation in various types of lymphocytes (CD4, CD8, and NK cells). Results are provided in FIGS. 9A (CD4), 9B (CD8), and 9C (NK).
# Cynomolgus monkeys (n=3-4 males), were administered a single intravenous injection of Conjugate 1 at 0.003, 0.01, 0.1 mg/kg or a vehicle control. Blood samples were collected at the indicated time points pre and post dose (−5, −2, 1, 2, 3, 4, 5, 6, 7, 10, 14, 17 days) and subjected to flow cytometric analysis to examine pharmacodynamic effects within lymphocyte populations. Proliferation (% Ki-67) and JAK/STAT signaling (% pSTAT5) for NK cells, CD8 T cells, and CD4 T cells were examined, with the results shown in FIGS. 45A-C and FIGS. 46A-C, respectively.
substance,measurement,setting,value
mono-mPEG-SBA40K-IL-15 [Conjugate 1],half-life,"[1]; Balb/c mice, single i.v. 10-1000 μg/kg (Example 23)",approximately 14 hours
same,half-life,"[1]; balb/c mice, single i.v., Conjugate 1 0.3 mg/kg, IL-15 0.5 mg/kg (Example 16)",approximately 12 hours
same,EC50 (ng/ml)-% pSTAT5 CD3 donor1,"human PBMCs; CD3 cells, donor1, 20 min stimulation",0.75 ng/ml
same,EC50 (ng/ml)-% pSTAT5 CD3 donor2,"human PBMCs; CD3 cells, donor2, 20 min stimulation",1.1 ng/ml
same,EC50 (ng/ml)-% pSTAT5 Treg donor1,"human PBMCs; CD4-Treg cells, donor1",0.23 ng/ml
same,EC50 (ng/ml)-% pSTAT5 Treg donor2,"human PBMCs; CD4-Treg cells, donor2",0.37 ng/ml
same,EC50 (ng/ml)-% pSTAT5 CD4 donor1,"human PBMCs; CD4 cells, donor1",0.75 ng/ml
same,EC50 (ng/ml)-% pSTAT5 CD4 donor2,"human PBMCs; CD4 cells, donor2",0.83 ng/ml
same,maximum pSTAT5 response compared with IL-15,human PBMCs; CD8 and CD56 bright NK cells,achieves the same maximum response as conventional IL-15
same,EC50 (ng/ml)-% pSTAT5 CD8 donor1,"human PBMCs; CD8 cells, donor1",0.76 ng/ml
same,EC50 (ng/ml)-% pSTAT5 CD8 donor2,"human PBMCs; CD8 cells, donor2",1.54 ng/ml
same,EC50 (ng/ml)-% pSTAT5 CD56bright donor1,"human PBMCs; CD56bright cells, donor1",1.4 ng/ml
same,EC50 (ng/ml)-% pSTAT5 CD56bright donor2,"human PBMCs; CD56bright cells, donor2",1.9 ng/ml
same,EC50 (ng/ml)-% pSTAT5 CD56dim donor1,"human PBMCs; CD56dim cells, donor1",2.9 ng/ml
same,EC50 (ng/ml)-% pSTAT5 CD56dim donor2,"human PBMCs; CD56dim cells, donor2",5.9 ng/ml
same,less potent than IL-15 in engaging CD8 cells,"human PBMCs; Example 22, % pSTAT5",5.5 X
same,less potent than IL-15 in engaging CD56 bright NK cells,"human PBMCs; Example 22, % pSTAT5",15 X
same,IL-15 signaling (STAT5 phosphorylation) in huPBMCs,"human PBMCs; NK cell subsets CD56bright, CD56dim",potently induces such signaling
same,EC50 (ng/ml) pSTAT5 CD56bright NK,"human PBMCs; Table 3, CD56bright NK cells",2.4 ng/ml
same,EC50 (ng/ml)-% pSTAT5 CD3,"human PBMCs; Table 7 Summary Table, CD3",0.75 ng/ml
same,EC50 (ng/ml)-% pSTAT5 CD4,"human PBMCs; Table 7 Summary Table, CD4",0.75 ng/ml
same,EC50 (ng/ml)-% pSTAT5 CD8,"human PBMCs; Table 7 Summary Table, CD8",0.76 ng/ml
same,EC50 (ng/ml)-% pSTAT5 CD56bright,"human PBMCs; Table 7 Summary Table, CD56bright",1.4 ng/ml
same,EC50 (ng/ml)-% pSTAT5 CD56dim,"human PBMCs; Table 7 Summary Table, CD56dim",2.9 ng/ml
same,EC50 (ng/ml)-% pSTAT5 Treg,"human PBMCs; Table 7 Summary Table, Treg",0.23 ng/ml
same,"IL-15 more potent than conjugate in inducing CD3, CD4, CD8 and Treg cells",human PBMCs; Table 7 data,3-4 fold
same,IL-15 more potent than conjugate in inducing CD56bright and CD56dim cells,human PBMCs; Table 7 data,approximately 12 fold
same,"IL-15 more potent than conjugate, CD3 and CD4 induction","human PBMCs; pSTAT5 EC50, CD3 and CD4",4-6 fold
same,"IL-15 more potent than conjugate, CD56 induction","human PBMCs; pSTAT5 EC50, CD56",~10 fold
same,"IL-15 more potent than conjugate, Treg and CD8 induction","human PBMCs; pSTAT5 EC50, Treg and CD8",3-5 fold
same,EC50 (ng/ml)-MFI CD3 donor1,"human PBMCs; pSTAT5 MFI, CD3 cells, donor1",22.1 ng/mL
same,EC50 (ng/ml)-MFI CD3 donor2,"human PBMCs; pSTAT5 MFI, CD3 cells, donor2",108.8 ng/mL
same,EC50 (ng/ml)-MFI Treg donor1,"human PBMCs; pSTAT5 MFI, CD4-Treg cells, donor1",2.5 ng/mL
same,EC50 (ng/ml)-MFI Treg donor2,"human PBMCs; pSTAT5 MFI, CD4-Treg cells, donor2",2.9 ng/mL
same,EC50 (ng/ml)-MFI CD4 donor1,"human PBMCs; pSTAT5 MFI, CD4 cells, donor1",23.54 ng/mL
same,EC50 (ng/ml)-MFI CD4 donor2,"human PBMCs; pSTAT5 MFI, CD4 cells, donor2",106.5 ng/mL
same,EC50 (ng/ml)-MFI CD8 donor1,"human PBMCs; pSTAT5 MFI, CD8 cells, donor1",16.73 ng/mL
same,EC50 (ng/ml)-MFI CD8 donor2,"human PBMCs; pSTAT5 MFI, CD8 cells, donor2",99.76 ng/mL
same,EC50 (ng/ml)-MFI CD56bright donor1,"human PBMCs; pSTAT5 MFI, CD56bright cells, donor1",7.8 ng/mL
same,EC50 (ng/ml)-MFI CD56bright donor2,"human PBMCs; pSTAT5 MFI, CD56bright cells, donor2",12.4 ng/mL
same,EC50 (ng/ml)-MFI CD56dim donor1,"human PBMCs; pSTAT5 MFI, CD56dim cells, donor1",23.25 ng/mL
same,EC50 (ng/ml)-MFI CD56dim donor2,"human PBMCs; pSTAT5 MFI, CD56dim cells, donor2",73.05 ng/mL
same,PK (MRT),[2],21 h
same,survival,"CT-26 cells; 0.3 mg/kg, followed 32 days post tumor cell injection, vs vehicle",increased survival significantly
same,reduction in lung metastases in comparison to vehicle,"CT-26 cells; Example 13, i.v. days 1, 5, 10, dose not stated",85%
same,lung nodule inhibition,CT-26 cells; 0.03 mg/kg dosed twice,40%
same,lung nodule inhibition,CT-26 cells; 0.3 mg/kg dosed twice,80%
same,pSTAT5 in CD8 T cells,"CD4, CD8, and NK cells; 0.1 and 0.01 mg/kg",dose-dependent increase in pSTAT5
same,dose level at which increase in % pSTAT5 in NK cells can be detected,"CD4, CD8, and NK cells; single i.v.",0.001 mg/kg
